# Results as given in US8563714B2, “Bridged spiro [2.4] heptane derivatives as ALX receptor and/or FPRL2 agonists” (Actelion Pharmaceuticals Ltd., priority 2009, dated 2013).
# Experiments:
# human FPRL2 = target: T1, human FPRL2 (Homo sapiens, UniProt P25089); experiment: Intracellular calcium measurements (FLIPR), agonistic activity in HEK293-hFPRL2-Gα16 cells; type: cell-based; conditions: Fluo-4 calcium FLIPR, normalized to GLY14-Humanin 100 nM
# T1 construct: expressed in transfected cells; host or cells: HEK293 (HEK293-hFPRL2-Gα16)
# T1 sequence (P25089 1-353): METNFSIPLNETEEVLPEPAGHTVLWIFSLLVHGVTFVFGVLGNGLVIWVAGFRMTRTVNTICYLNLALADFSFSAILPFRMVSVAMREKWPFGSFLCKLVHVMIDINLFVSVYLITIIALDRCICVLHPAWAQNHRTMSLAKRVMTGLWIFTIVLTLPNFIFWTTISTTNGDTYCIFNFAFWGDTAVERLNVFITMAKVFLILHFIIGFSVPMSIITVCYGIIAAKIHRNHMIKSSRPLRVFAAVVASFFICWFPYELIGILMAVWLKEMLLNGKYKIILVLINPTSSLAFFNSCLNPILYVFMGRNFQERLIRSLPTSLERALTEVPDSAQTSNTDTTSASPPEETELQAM
# Outline: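 Peak values after baseline subtraction are expressed relative to 100 nM Gly14-Humanin; compounds diluted in assay buffer from 10 mM DMSO stocks.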
# human ALX receptor = target: T2, human ALX receptor (Homo sapiens, UniProt P25090); experiment: Intracellular calcium measurements (FLIPR), agonistic activity in HEK293-hALXR-Gα16 cells; type: cell-based; conditions: Fluo-4 calcium FLIPR, normalized to WKYMVm 10 nM
# T2 construct: expressed in transfected cells; host or cells: HEK293 (HEK293-hALXR-Gα16)
# T2 sequence (P25090 1-351): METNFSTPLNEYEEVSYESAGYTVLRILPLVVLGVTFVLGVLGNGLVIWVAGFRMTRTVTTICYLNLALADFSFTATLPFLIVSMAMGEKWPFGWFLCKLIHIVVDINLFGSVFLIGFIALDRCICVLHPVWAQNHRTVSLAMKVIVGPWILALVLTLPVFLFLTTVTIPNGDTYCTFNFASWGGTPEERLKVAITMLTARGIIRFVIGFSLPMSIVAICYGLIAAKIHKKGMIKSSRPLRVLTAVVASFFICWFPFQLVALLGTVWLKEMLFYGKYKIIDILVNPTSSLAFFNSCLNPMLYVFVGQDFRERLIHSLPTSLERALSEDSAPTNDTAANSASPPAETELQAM
# Outline: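 Agonist-induced calcium flux was recorded by FLIPR (488/540 nm) in HEK293-hALXR-Gα16 cells pre-loaded with Fluo-4 AM (1 μM, 60 min, 37°C). Peak signal above baseline, after subtracting buffer addition, was expressed relative to WKYMVm at 10 nM final.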
SMILES,EC50 (human FPRL2) [nM],EC50 (human ALX receptor) [nM]
"CN(C)C(=O)CCC(=O)NC[C@H]1[C@H](C(=O)Nc2ccc(Br)cc2)[C@@H]2C=C[C@H]1C21CC1 (racemic) [Example 164, (5R*)—N^5-(4-Bromo-phenyl)-(6R*)-6-[(3-(N,N-dimethyl-aminocarbonyl)-propionyl-amino)-methyl]-(4S*,7R*)-[4,7-ethenylene-spiro[2.4]heptane]-5-carboxamide]",6820,80
"COC(=O)CCCC(=O)NC[C@H]1[C@H](C(=O)Nc2ccc(Br)cc2)[C@@H]2C=C[C@H]1C21CC1 (racemic) [Example 166, (5R*)—N^5-(4-Bromo-phenyl)-(6R*)-6-{[(4-methoxycarbonyl-butanoyl)-amino]-methyl}-(4S*,7R*)-[4,7-ethenylene-spiro[2.4]heptane]-5-carboxamide]",4710,88
"CCCCC(=O)NC[C@H]1[C@H](C(=O)Nc2ccc(Br)cc2)[C@@H]2C=C[C@H]1C21CC1 (racemic) [Example 167, (5R*)—N^5-(4-Bromo-phenyl)-(6R*)-6-(pentanoylamino-methyl)-(4S*,7R*)-[4,7-ethenylene-spiro[2.4]heptane]-5-carboxamide]",3690,103
"Cc1nc(CC(=O)NC[C@H]2[C@H](C(=O)Nc3ccc(Br)cc3)[C@@H]3C=C[C@H]2C32CC2)c(C)s1 (racemic) [Example 168, (5R*)—N^5-(4-Bromo-phenyl)-(6R*)-6-[(2-(2,5-dimethyl-thiazol-4-yl)-acetylamino)-methyl]-(4S*,7R*)-[4,7-ethenylene-spiro[2.4]heptane]-5-carboxamide]",862,71
"O=C(NC[C@H]1[C@H](C(=O)Nc2ccc(Br)cc2)[C@@H]2C=C[C@H]1C21CC1)c1ccnn1-c1ccccc1 (racemic) [Example 169, (5R*)—N^5-(4-Bromo-phenyl)-(6R*)-6-{[(1-phenyl-1H-pyrazole-5-carbonyl)-amino]-methyl}-(4S*,7R*)-[4,7-ethenylene-spiro[2.4]heptane]-5-carboxamide]",1790,112
"NC(=O)CCC(=O)NC[C@H]1[C@H](C(=O)Nc2ccc(Br)cc2)[C@@H]2C=C[C@H]1C21CC1 (racemic) [Example 170, (5R*)—N^5-(4-Bromo-phenyl)-(6R*)-6-{[(3-aminocarbonyl-propionyl)-amino]-methyl}-(4S*,7R*)-[4,7-ethenylene-spiro[2.4]heptane]-5-carboxamide]",> 25000,114
"Cc1ccncc1C(=O)NC[C@H]1[C@H](C(=O)Nc2ccc(Br)cc2)[C@@H]2C=C[C@H]1C21CC1 (racemic) [Example 171, (5R*)—N^5-(4-Bromo-phenyl)-(6R*)-6-{[(4-methyl-pyridine-3-carbonyl)-amino]-methyl}-(4S*,7R*)-[4,7-ethenylene-spiro[2.4]heptane]-5-carboxamide]",3220,118
"CC(C)C(=O)NC[C@H]1[C@H](C(=O)Nc2ccc(Br)cc2)[C@@H]2C=C[C@H]1C21CC1 (racemic) [Example 172, (5R*)—N^5-(4-Bromo-phenyl)-(6R*)-6-[(isobutyrylamino)-methyl]-(4S*,7R*)-[4,7-ethenylene-spiro[2.4]heptane]-5-carboxamide]",4610,125
"CCN1CCC(C(=O)NC[C@H]2[C@H](C(=O)Nc3ccc(Br)cc3)[C@@H]3C=C[C@H]2C32CC2)CC1 (racemic) [Example 173, (5R*)—N^5-(4-Bromo-phenyl)-(6R*)-6-{[(N-ethyl-piperidine-4-carbonyl)-amino]-methyl}-(4S*,7R*)-[4,7-ethenylene-spiro[2.4]heptane]-5-carboxamide]",1820,131
"O=C(CCc1cccnc1)NC[C@H]1[C@H](C(=O)Nc2ccc(Br)cc2)[C@@H]2C=C[C@H]1C21CC1 (racemic) [Example 174, (5R*)—N^5-(4-Bromo-phenyl)-(6R*)-6-[(3-pyridin-3-yl-propionylamino)-methyl]-(4S*,7R*)-[4,7-ethenylene-spiro[2.4]heptane]-5-carboxamide]",4810,136
"COCCC(=O)N(C)C[C@H]1[C@H](C(=O)Nc2ccc(Br)cc2)[C@@H]2C=C[C@H]1C21CC1 (racemic) [Example 175, (5R*)—N^5-(4-Bromo-phenyl)-(6R*)-6-{[N-(3-methoxy-propionyl)-N-methyl-amino]-methyl}-(4S*,7R*)-[4,7-ethenylene-spiro[2.4]heptane]-5-carboxamide]",7210,155
"O=C(NC[C@H]1[C@H](C(=O)Nc2ccc(Br)cc2)[C@@H]2C=C[C@H]1C21CC1)c1cccc(F)c1Cl (racemic) [Example 176, (5R*)—N^5-(4-Bromo-phenyl)-(6R*)-6-{[(2-chloro-3-fluoro-phenyl-carbonyl)-amino]-methyl}-(4S*,7R*)-[4,7-ethenylene-spiro[2.4]heptane]-5-carboxamide]",2230,158

# Now from value to compound:
EC50 (human FPRL2) [nM],EC50 (human ALX receptor) [nM],SMILES
446,160,"O=C(CCCN1CCCC1)NC[C@H]1[C@H](C(=O)Nc2ccc(Br)cc2)[C@@H]2C=C[C@H]1C21CC1 (racemic) [Example 177, (5R*)—N^5-(4-Bromo-phenyl)-(6R*)-6-[(4-pyrrolidin-1-yl-butanoylamino)-methyl]-(4S*,7R*)-[4,7-ethenylene-spiro[2.4]heptane]-5-carboxamide]"
4070,115,"Cc1cc(C(=O)NC[C@H]2[C@H](C(=O)Nc3ccc(Br)cc3)[C@@H]3C=C[C@H]2C32CC2)nn1C (racemic) [Example 178, (5R*)—N^5-(4-Bromo-phenyl)-(6R*)-6-{[(1,5-dimethyl-1H-pyrazole-3-carbonyl)-amino]-methyl}-(4S*,7R*)-[4,7-ethenylene-spiro[2.4]heptane]-5-carboxamide]"
1380,200,"O=C(NC[C@H]1[C@H](C(=O)Nc2ccc(Br)cc2)[C@@H]2C=C[C@H]1C21CC1)C1CCCC1 (racemic) [Example 179, (5R*)—N^5-(4-Bromo-phenyl)-(6R*)-6-{[(cyclopentyl-carbonyl)-amino]-methyl}-(4S*,7R*)-[4,7-ethenylene-spiro[2.4]heptane]-5-carboxamide]"
888,252,"Cc1nc(CC(=O)NC[C@H]2[C@H](C(=O)Nc3ccc(Br)cc3)[C@@H]3C=C[C@H]2C32CC2)cs1 (racemic) [Example 180, (5R*)—N^5-(4-Bromo-phenyl)-(6R*)-6-[(2-(2-methyl-thiazol-4-yl)-acetylamino)-methyl]-(4S*,7R*)-[4,7-ethenylene-spiro[2.4]heptane]-5-carboxamide]"
2050,265,"CN(C)CC(=O)NC[C@H]1[C@H](C(=O)Nc2ccc(Br)cc2)[C@@H]2C=C[C@H]1C21CC1 (racemic) [Example 181, (5R*)—N^5-(4-Bromo-phenyl)-(6R*)-6-[(2-(N,N-dimethyl-amino)-acetylamino)-methyl]-(4S*,7R*)-[4,7-ethenylene-spiro[2.4]heptane]-5-carboxamide]"
2020,298,"CN(C[C@H]1[C@H](C(=O)Nc2ccc(Br)cc2)[C@@H]2C=C[C@H]1C21CC1)C(=O)Cc1ccccc1Cl (racemic) [Example 182, (5R*)—N^5-(4-Bromo-phenyl)-(6R*)-6-{[N-(2-(2-chloro-phenyl)-acetyl)-N-methyl-amino]-methyl}-(4S*,7R*)-[4,7-ethenylene-spiro[2.4]heptane]-5-carboxamide]"
8900,303,"Cc1cc(C(=O)N(C)C[C@H]2[C@H](C(=O)Nc3ccc(Br)cc3)[C@@H]3C=C[C@H]2C32CC2)nn1C (racemic) [Example 183, (5R*)—N^5-(4-Bromo-phenyl)-(6R*)-6-{[N-(1,5-dimethyl-1H-pyrazole-3-carbonyl)-N-methyl-amino]-methyl}-(4S*,7R*)-[4,7-ethenylene-spiro[2.4]heptane]-5-carboxamide]"
> 14500,315,"O=C(CC1CC1)NC[C@H]1[C@H](C(=O)Nc2ccc(Br)cc2)[C@@H]2C=C[C@H]1C21CC1 (racemic) [Example 184, (5R*)—N^5-(4-Bromo-phenyl)-(6R*)-6-[(2-cyclopropyl-acetylamino)-methyl]-(4S*,7R*)-[4,7-ethenylene-spiro[2.4]heptane]-5-carboxamide]"
